Data published in EP1202992B1, “ASCIDIDEMIN DERIVATIVES AND THEIR THERAPEUTIC APPLICATIONS” (CEPHALON FRANCE, priority 1999, dated 2001).
Like-named read-outs stand apart in the source and are kept apart here.

Tests used:
souris B6D2F1/Jico = test: Determination of the maximum tolerated dose (DMT); type: in vivo; conditions: B6D2F1/Jico mice, single intraperitoneal administration, doses 2,5 to 160 mg/kg, survival over 14 days
Protocol: L'évaluation de la dose maximale tolérée a été réalisée chez des souris B6D2F1/Jico âgées de 4 à 6 semaines. Les composés ont été administrés par voie intrapéritonéale à des doses croissantes s'échelonnant de 2,5 à 160 mg/kg. La valeur de la DMT (exprimée en mg/kg) est déterminée à partir de l'observation du taux de survie des animaux sur une période de 14 jours après une administration unique du produit considéré. L'évolution pondérale des animaux est également suivie pendant cette période. Lorsque la valeur de la DMT est supérieure à 160 mg/kg, la valeur de la DMT est assimilée à 160 mg/kg par défaut.

[1] = test system: modèle cellulaire de leucémie; conditions: leukaemia cell model, literature value; cited from earlier work
[2] = test system: 12 lignées tumorales humaines; test: MTT colorimetric cytotoxicity test, all 12 tumour cell lines together; type: cell-based; conditions: mean calculated from the cytotoxic activity on the 12 tumour cell lines; read-out: Cl 50 (the source's name)
Excerpt: (§1) L'influence des composés de formules I et la sur les cellules néoplasiques a été évaluée à l'aide du test colorimétrique MTT. Le principe du test MTT est basé sur la réduction mitochondriale par les cellules vivantes métaboliquement actives du produit MTT (3-(4,5-diméthylthiazol-2-yl)-2,5 diphényltétrazolium bromide) de couleur jaune en un produit de couleur bleue, le formazan. La quantité de formazan ainsi obtenue est directement proportionnelle à la quantité de cellules vivantes présentes dans le (ou les) puit(s) de culture. Cette quantité de formazan est mesurée par spectrophotométrie.
(§2) Les lignées cellulaires sont maintenues en culture monocouche à 37°C dans des boîtes de culture à bouchon fermé contenant du milieu de base MEM 25 MM HEPES (Minimum Essential Medium). Ce milieu, adapté à la croissance d'une gamme de cellules variées diploïdes ou primaires de mammifères, est ensuite additionné : • d'une quantité de 5% de SVF (Sérum de Veau Foetal) décomplémenté à 56°C pendant 1 heure, • de 0,6 mg/ml de L-glutamine, • de 200 IU/ml de pénicilline, • de […] de streptomycine, • de 0,1 mg/ml de gentamicine.
Les 12 lignées cellulaires cancéreuses humaines utilisées ont été obtenues auprès de l'American Type Culture Collection (ATCC, Rockville, MD, USA). Ces 12 lignées cellulaires sont : • U-373MG (code ATCC : HTB-17) et U-87MG (code ATCC : HTB-14) qui sont deux glioblastomes, • SW1088 (code ATCC : HTB-12) qui est un astrocytome, • A549 (code ATCC : CCL-185) et A-427 (code ATCC : HTB-53) qui sont deux cancers du poumon non-à-petites-cellules, • HCT-15 (code ATCC : CCL-225) et LoVo (code ATCC : CCL-229) qui sont deux cancers colorectaux, • T-47D (code ATCC : HTB-133) et MCF7 (code ATCC : HTB-22) qui sont deux cancers du sein, • J82 (code ATCC : HTB-1) et T24 (code ATCC : HTB-4) qui sont deux cancers de la vessie, • PC-3 (code ATCC : CRL-1435) qui est un cancer de la prostate.
Au plan expérimental : 100 µl d'une suspension cellulaire contenant 20 000 à 50 000 (selon le type cellulaire utilisé) cellules/ml de milieu de culture sont ensemencés en plaques multi-puits de 96 puits à fond plat et sont mis à incuber à 37°C, sous atmosphère comprenant 5% de CO2 et 70% d'humidité. Au bout de 24 heures d'incubation, le milieu de culture est remplacé par 100 µl de milieu frais contenant soit les différents composés à tester à des concentrations variant de 10^-5 à 10^-10 M soit le solvant ayant servi à la mise en solution des produits à tester (condition contrôle). Après 72 heures d'incubation dans les conditions précédentes, le milieu de culture est remplacé par 100 µl d'une solution jaunâtre de MTT dissous à raison de 1 mg/ml dans du RPMI 1640. Les microplaques sont remises à incuber pendant 3 heures à 37°C puis centrifugées pendant 10 minutes à 400 g. La solution jaunâtre de MTT est éliminée et les cristaux de formazan bleu formés au niveau cellulaire sont dissous dans 100 µl de DMSO. Les microplaques sont ensuite mises sous agitation pendant 5 minutes. L'intensité de la coloration bleue résultant donc de la transformation du produit MTT jaune en formazan bleu par les cellules encore vivantes au terme de l'expérience est quantifiée par spectrophotométrie à l'aide d'un appareil de type DYNATECH IMMUNOASSAY SYSTEM aux longueurs d'onde de 570 nm et 630 nm correspondant respectivement aux longueurs d'ondes d'absorbance maximale du formazan et au bruit de fond. Un logiciel intégré au spectrophotomètre calcule les valeurs moyennes de densité optique ainsi que les valeurs de déviation standard (Dév. Std.) et d'erreur standard sur la moyenne (ESM).
L'activité inhibitrice de la croissance cellulaire des composés de formules I et la sur les différentes lignées cellulaires tumorales a été comparée à celle du produit naturel, l'ascididémine (CRL 8274). […]

SW1088 = test: MTT colorimetric cytotoxicity test, SW1088; type: cell-based, humaines; conditions: SW1088, 72 h incubation, read-out: Concentrations inhibitrices (M) encadrant la valeur de la concentration inhibitrice 50 %
Excerpt: as §1, §2
(§3) Les 12 lignées cellulaires cancéreuses humaines utilisées ont été obtenues auprès de l'American Type Culture Collection (ATCC, Rockville, MD, USA). […]
Au plan expérimental : 100 µl d'une suspension cellulaire contenant 20 000 à 50 000 (selon le type cellulaire utilisé) cellules/ml de milieu de culture sont ensemencés en plaques multi-puits de 96 puits à fond plat et sont mis à incuber à 37°C, sous atmosphère comprenant 5% de CO2 et 70% d'humidité. […] L'intensité de la coloration bleue résultant donc de la transformation du produit MTT jaune en formazan bleu par les cellules encore vivantes au terme de l'expérience est quantifiée par spectrophotométrie à l'aide d'un appareil de type DYNATECH IMMUNOASSAY SYSTEM aux longueurs d'onde de 570 nm et 630 nm correspondant respectivement aux longueurs d'ondes d'absorbance maximale du formazan et au bruit de fond. […]

LoVo = test: MTT colorimetric cytotoxicity test, LoVo; type: cell-based, humaines; conditions: Homo sapiens, 72 h incubation, read-out: Concentrations inhibitrices (M) encadrant la valeur de la concentration inhibitrice 50 %
Excerpt: as §1, §2, §3

T24 = test: MTT colorimetric cytotoxicity test, T24; type: cell-based, humaines; conditions: read-out: Concentrations inhibitrices (M) encadrant la valeur de la concentration inhibitrice 50 %
Excerpt: as §1, §2, §3

J82 = test: MTT colorimetric cytotoxicity test, J82; type: cell-based, humaines; conditions: J82, 72 h incubation, read-out: Concentrations inhibitrices (M) encadrant la valeur de la concentration inhibitrice 50 %
Excerpt: as §1, §2, §3

PC-3 = test: MTT colorimetric cytotoxicity test, PC-3; type: cell-based, humaines; conditions: Homo sapiens, PC-3, 72 h incubation, read-out: Concentrations inhibitrices (M) encadrant la valeur de la concentration inhibitrice 50 %
Excerpt: as §1, §2, §3

U-373MG = test: MTT colorimetric cytotoxicity test, U-373MG; type: cell-based, humaines; conditions: 72 h incubation, read-out: Concentrations inhibitrices (M) encadrant la valeur de la concentration inhibitrice 50 %
Excerpt: as §1, §2, §3

| Molecule | DMT (souris B6D2F1/Jico) [mg/kg] | IC50 [2] [µM] | further results |
| --- | --- | --- | --- |
| 2-bromoleptoclinidone [CRL 8269, reference compound] | 40 | 0.12 | DE 50 [1]: 0.4 µg/mL |
| 5-(2-chloroéthyl)amino-9H-quino[4,3,2de][1,10] phénanthrolin-9-one [CRL 8423] | >160 | 0.007 | – |
| 5-(diméthylamino-2-éthyl)amino-9H-quino[4,3,2de][1,10] phénanthrolin-9-one [CRL 8419] | 40 | 0.06 | – |
| 5-bis(2-chloroéthyl)amino-9H-quino[4,3,2de][1,10] phénanthrolin-9-one [CRL 8422] | >160 | 0.1 | – |
| 5-chloro-9H-quino [4,3,2-de] [1,10] phénantrolin-9-one [CRL 8301] | >160 | 0.27 | – |
| 9-H-quino[4,3,2-de][1,10]phénanthrolin-9-one [CRL 8274, reference compound] | 20 | 0.1 | – |
| CC(=O)c1ccc(Br)cc1NC1=CC(=O)c2ncccc2C1=O [CRL8268, 6-(2-acétyl-5-bromo-phénylamino)-quinoline-5,8 dione] | – | – | IC50 (SW1088; Homo sapiens): > 1e-05 M |
| CC(=O)c1cc(C)ccc1NC1=CC(=O)c2ncccc2C1=O [CRL8322, 6-(2-acétyl-4-méthyl-phénylamino)-quinoline-5,8-dione] | – | – | IC50 (LoVo): > 1e-05 M; IC50 (SW1088; Homo sapiens): > 1e-05 M; IC50 (T24; Homo sapiens, T-24, T24, 72 h incubation): > 1e-05 M; IC50 (J82; Homo sapiens): > 1e-05 M; IC50 (PC-3): > 1e-05 M |
| Cc1ccc2nc3c(c(C)c2c1)C(=O)c1ncccc1C3=O [CRL8324, 9,11-diméthyl-1,6-diaza-naphtacène-5,12-dione] | – | – | IC50 (SW1088): > 1e-05 M; IC50 (T24; T24, 72 h incubation): > 1e-05 M; IC50 (J82): > 1e-05 M; IC50 (U-373MG): > 1e-05 M |
| O=C1c2cccnc2-c2nccc3c2c1nc1ccc(NCc2ccccc2)cc13 [CRL 8241, 5-(benzylamino)-9H-quino[4,3,2-de][1,10] phénanthrolin-9-one] | >160 | 0.14 | – |
| O=C1c2nccc(Br)c2-c2nc3ccccc3c3ccnc1c23 [CRL 8248, 5-bromo-9H-quino[4,3,2-de] [1,10]phénantrolin-9-one] | >160 | 0.08 | – |
| COc1ccc2nc3c4c(nccc4c2c1)-c1ncccc1C3=O [CRL 8297, 5-méthoxy-9H-quino[4,3,2-de][1,10]phénanthrolin-9-one] | >160 | 0.09 | – |
| Cc1ccc2nc3c4c(nccc4c2c1)-c1ncccc1C3=O [CRL 8323, 5-méthyl-9H-quino [4,3,2-de][1,10] phénanthrolin-9-one] | 20 | 0.06 | – |
| CN(C)c1ccc2nc3c4c(nccc4c2c1)-c1ncccc1C3=O [CRL 8325, 5-(diméthylamino)-9H-quino[4,3,2-de][1,10]phénanthrolin-9-one] | >160 | 0.037 | – |
| Nc1ccnc2c1-c1nc3ccccc3c3ccnc(c13)C2=O [CRL 8347, 5-amino-9H-quino[4,3,2-de][1,10]phénanthtolin-9-one] | >160 | 0.021 | – |
| COc1ccnc2c1C(=O)c1nc3ccc(Br)cc3c3ccnc-2c13 [CRL 8389, 5-bromo-10-méthoxy-9H-quino[4,3,2-de][1,10]phénanthrolin-9-one] | >160 | 0.42 | – |
| CN(C)c1ccc2nc3c4c(nccc4c2c1)-c1ncccc1C3=O [CRL 8407, Chlorhydratede la 5-(diméthylamino)-9H-quino[4,3,2-de][1,10] phénanthrolin-9-one] | >160 | 0.022 | – |
| O=C1c2cccnc2-c2nccc3c2c1nc1ccc(NCc2ccccc2)cc13 [CRL 8416, Chlorhydratede la 5-(benzylamino)-9H-quino[4,3,2-de][1,10] phénanthrolin-9-one] | >160 | 0.08 | – |
| Chlorhydrate de la 5-(diméthylamino-2-éthyl)amino-9H-quino[4,3,2de][1,10] phénanthrolin-9-one [CRL 8418] | 40 | 0.11 | – |
| Chlorhydrate de la 5-amino-9H-quino[4,3,2-de][1,10]phénanthrolin-9-one [CRL 8406] | >160 | 0.06 | – |
